Where two headings read alike, the source gives them in different places.
Key:
[1] = test system: Ovarian Cell Line IGROV1; format: cell-based; settings: Homo sapiens
[2] = target: T1, HDAC6 (Homo sapiens, UniProt Q9UBN7); test: HDAC Fluorescent Activity Assay; format: biochemical; settings: symbols ++ / +; read-out: HDAC6 Inhibition Activity (IC50 class)
T1 sequence (Q9UBN7 1-1215): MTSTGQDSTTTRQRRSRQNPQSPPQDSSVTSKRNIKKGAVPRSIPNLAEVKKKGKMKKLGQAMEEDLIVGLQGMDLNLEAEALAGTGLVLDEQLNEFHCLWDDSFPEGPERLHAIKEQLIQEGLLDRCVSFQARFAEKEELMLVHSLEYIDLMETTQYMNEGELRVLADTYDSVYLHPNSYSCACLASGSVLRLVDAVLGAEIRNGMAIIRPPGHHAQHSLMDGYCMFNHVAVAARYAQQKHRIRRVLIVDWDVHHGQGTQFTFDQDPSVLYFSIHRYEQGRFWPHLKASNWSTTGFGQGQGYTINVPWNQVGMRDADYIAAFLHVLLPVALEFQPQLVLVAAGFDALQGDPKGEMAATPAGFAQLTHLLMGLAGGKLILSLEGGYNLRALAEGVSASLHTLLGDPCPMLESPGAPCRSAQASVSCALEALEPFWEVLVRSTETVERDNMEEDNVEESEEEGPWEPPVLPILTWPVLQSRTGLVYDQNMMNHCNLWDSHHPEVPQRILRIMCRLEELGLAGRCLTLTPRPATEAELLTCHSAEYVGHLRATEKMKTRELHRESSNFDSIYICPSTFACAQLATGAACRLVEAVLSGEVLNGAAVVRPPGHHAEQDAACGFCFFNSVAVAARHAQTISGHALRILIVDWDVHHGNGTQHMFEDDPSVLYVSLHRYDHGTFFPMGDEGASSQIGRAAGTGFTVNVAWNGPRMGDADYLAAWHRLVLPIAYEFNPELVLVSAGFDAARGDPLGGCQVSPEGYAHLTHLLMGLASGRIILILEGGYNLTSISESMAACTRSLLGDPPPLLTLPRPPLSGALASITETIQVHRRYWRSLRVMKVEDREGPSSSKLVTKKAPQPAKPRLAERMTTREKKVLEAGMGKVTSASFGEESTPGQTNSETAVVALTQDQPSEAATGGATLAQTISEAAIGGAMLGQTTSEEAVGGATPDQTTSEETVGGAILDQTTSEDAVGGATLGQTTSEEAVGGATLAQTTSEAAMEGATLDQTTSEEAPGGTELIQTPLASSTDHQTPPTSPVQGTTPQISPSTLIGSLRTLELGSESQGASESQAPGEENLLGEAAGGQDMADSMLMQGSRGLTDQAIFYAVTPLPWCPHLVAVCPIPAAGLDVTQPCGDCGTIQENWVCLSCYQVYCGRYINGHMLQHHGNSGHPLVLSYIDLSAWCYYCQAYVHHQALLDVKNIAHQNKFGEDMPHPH
Procedure: This protocol is to determine the IC50s or percentage of inhibition values of the test compound against HDACs.
The HDAC Fluorescent Activity Assay is based on the unique Fluorogenic Substrate and Developer combination. […] First, the Fluorogenic Substrate, which comprises an acetylated lysine side chain, is incubated with a purified HDAC enzyme. Deacetylation of the substrate sensitizes the substrate so that, in the second step, treatment with the Developer produces a fluorophore.
Testing compounds were dissolved in 100% DMSO to specific concentration. […]
1. Deliver 2× enzyme in wells of reaction plate except No Enzyme control wells. Add buffer in No En wells.
2. Deliver compounds in 100% DMSO into the enzyme mixture by Acoustic technology (Echo550; nanoliter range). Spin down and pre-incubation.
3. Deliver 2× Substrate Mixture (Fluorogenic HDAC Substrate and co-factor if applicable) in all reaction wells to initiate the reaction. Spin and shake.
4. Incubate for 1-2 hr at 30° C. with seal.
5. Add Developer with Trichostatin A (or TMP269) to stop the reaction and to generate fluorescent color.
6. Fluorescence was read (excitatory, 360; emission, 460) using the EnVision Multilabel
7. Take endpoint reading for analysis after the development reaches plateau.
The percentages of enzyme activity (relative to DMSO controls) and IC50 values were calculated using the GraphPad Prism 4 program based on a sigmoidal dose-response equation.

[3] = test system: Breast Cancer Cell Line MDA-MB-468; test: cells; settings: Homo sapiens, MDA-MB-468, read-out: inhibition of proliferation
[4] = test system: Ovarian Cell Line OVCAR-8; test: cells; format: cell-based; settings: Homo sapiens; OVCAR-8; single dose, 10 uM compound concentration; read-out: inhibition of proliferation
[5] = test system: Ovarian Cell Line OVCAR-3; test: cells; settings: Homo sapiens, OVCAR-3, read-out: inhibition of proliferation
[6] = test system: Leukemia Cell Line RPMI-8226; format: cell-based; settings: Homo sapiens
[7] = test system: Leukemia Cell Line MOLT-4; format: cell-based; settings: Homo sapiens
[8] = test system: Leukemia Cell Line HL-60(TB); format: cell-based; settings: Homo sapiens
[9] = test system: Breast Cancer Cell Line BT-549; test: cells; format: cell-based; settings: Homo sapiens
[10] = test system: Leukemia Cell Line CCRF-CEM; test: cells; format: cell-based; settings: Homo sapiens, read-out: inhibition of proliferation
[11] = test system: Melanoma Cell Line UACC-62; test: cells; format: cell-based; settings: Homo sapiens
[12] = test system: Leukemia Cell Line SR; test: cells; format: cell-based; settings: Homo sapiens, read-out: inhibition of proliferation
[13] = test system: Leukemia Cell Line K-562; format: cell-based; settings: Homo sapiens
[14] = test system: Ovarian Cell Line NCI/ADR-RES; test: cells; format: cell-based; settings: Homo sapiens, read-out: inhibition of proliferation
[15] = test system: Breast Cancer Cell Line HS 578T; format: cell-based; settings: Homo sapiens, read-out: inhibition of proliferation
[16] = single dose, 10 uM compound concentration

In the case of `Cc1nc2cccc(NCc3ccc(C(=O)NO)cc3)c2c(=O)n1-c1ccccc1` [Compound LX, N-hydroxy-4-(((2-methyl-4-oxo-3-phenyl-3,4-dihydroquinazolin-5-yl)amino)methyl)benzamide], the inhibition at 10 µM ([1]; IGROV-1, IGROV1, single dose, 10 uM compound concentration, read-out: inhibition of proliferation) is reported as > 50%, the IC50 [2] is reported as < 100 nM and the inhibition at 10 µM [3] is reported as > 50%. The inhibition at 10 µM [4] was > 50%, the inhibition at 10 µM [5] was > 50% and the inhibition at 10 µM ([6]; RPMI-8226, single dose, 10 uM compound concentration, read-out: inhibition of proliferation) was > 50%. For the same compound, the inhibition at 10 µM ([7]; MOLT-4, single dose, 10 uM compound concentration, read-out: inhibition of proliferation) was > 50%, the inhibition at 10 µM ([8]; HL-60(TB), single dose, 10 uM compound concentration, read-out: inhibition of proliferation) was > 50% and the inhibition at 10 µM ([9]; BT-549, single dose, 10 uM compound concentration, read-out: inhibition of proliferation) was 25 to 50%. The inhibition at 10 µM [10, 16] was > 50%, the inhibition at 10 µM ([11]; UACC-62, single dose, 10 uM compound concentration, read-out: inhibition of proliferation) was > 50% and the inhibition at 10 µM ([12]; SR, single dose, 10 uM compound concentration) was > 50%. For the same compound, the inhibition at 10 µM ([13]; K562, K-562, single dose, 10 uM compound concentration, read-out: inhibition of proliferation) was > 50%, the inhibition at 10 µM [14, 16] was > 50% and the inhibition at 10 µM ([15]; HS 578T, single dose, 10 uM compound concentration) was 25 to 50%.

With `CC[C@H](Nc1ncnc2[nH]cnc12)c1nc2cccc(NCc3ccc(C(=O)NO)nc3)c2c(=O)n1-c1ccccc1` [V, (S)-5-(((2-(1-((9H-purin-6-yl)amino)propyl)-4-oxo-3-phenyl-3,4-dihydroquinazolin-5-yl)amino)methyl)-N-hydroxypicolinamide] the inhibition at 10 µM ([1]; IGROV-1, read-out: inhibition of proliferation) was 25 to 50%, the inhibition at 10 µM ([6]; RPMI-8226, read-out: inhibition of proliferation) was > 50% and the inhibition at 10 µM ([7]; MOLT-4, read-out: inhibition of proliferation) was > 50%. For the same compound, the inhibition at 10 µM ([8]; HL-60, read-out: inhibition of proliferation) was > 50%, the inhibition at 10 µM ([9]; BT-549, read-out: inhibition of proliferation) was > 50% and the inhibition at 10 µM [10] was > 50%. For the same compound, the inhibition at 10 µM ([11]; UACC-62, read-out: inhibition of proliferation) was > 50%, the inhibition at 10 µM [12] was > 50% and the inhibition at 10 µM ([13]; K562, read-out: inhibition of proliferation) was > 50%. The inhibition at 10 µM [14] was 25 to 50% and the inhibition at 10 µM ([15]; Hs-578T) was > 50%.

— patent US20200165257A1, “INHIBITORS OF PHOSPHOINOSITIDE 3-KINASE AND HISTONE DEACETYLASE FOR TREATMENT OF CANCER” (THE UNITED STATES OF AMERICA, AS REPRESENTED BY THE …, priority 2017, published 2020)
